Data reported in paper PMC4305313, “A Novel Phthalimide Derivative, TC11, Has Preclinical Effects on High-Risk Myeloma Cells and Osteoclasts” (PLoS ONE, 2015).

Biological target: T1, nucleophosmin 1 (NPM1) (Homo sapiens, UniProt P06748)
T1 construct: full length of NPM1, recombinant, expressed in E. coli
Test: SPR (Biacore […], NPM1 immobilized on NTA chip)
Type: binding

T1 sequence (P06748 whole entry): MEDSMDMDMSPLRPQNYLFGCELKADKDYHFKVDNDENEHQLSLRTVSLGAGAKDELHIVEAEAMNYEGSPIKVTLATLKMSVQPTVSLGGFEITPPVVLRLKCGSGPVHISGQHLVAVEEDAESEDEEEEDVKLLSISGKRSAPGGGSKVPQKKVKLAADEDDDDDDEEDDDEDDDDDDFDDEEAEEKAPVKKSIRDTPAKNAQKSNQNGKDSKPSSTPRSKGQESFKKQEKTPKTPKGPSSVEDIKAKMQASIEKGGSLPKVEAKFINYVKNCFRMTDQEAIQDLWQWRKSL

Kd [nM] | Compound
62.3 | CC(C)c1cccc(C(C)C)c1N1C(=O)c2ccc(N)cc2C1=O [TC11, 2-(2,6-diisopropylphenyl)-5-amino-1H-isoindole-1,3-dione]
766 | Nc1cccc2c1CN(C1CCC(=O)NC1=O)C2=O (centres unmarked) [lenalidomide]
